Laboratory results from US20230159552A1, “[…] ITS ANALOGUES, METHODS FOR THEIR PREPARATION, AND METHODS OF USE” (priority 2020, published 2023).
Read-outs that look alike come from different tables or passages of the source.

Key:
HCT116 = test: Cytotoxicity against HCT116 cell line; format: cell-based, human
Description: (§1) The results of the initial evaluation for cytotoxicity against various cancer cell lines of analogues 38a-f, along with those for 1, 36 and intermediate alcohol 35 are summarized in Table A. L1210 is a murine lymphocytic leukemia cell line. HCT116 and HCT116/VM46 are human colon cancer cell lines, with the latter being a multi-drug resistant variant of the former. MCF-7 is a human breast cancer cell line.

HCT116/VM46 = test: Cytotoxicity against HCT116/VM46 cell line (multi-drug resistant variant); format: cell-based, human
Description: as §1

MCF-7 = test: Cytotoxicity against MCF-7 cell line; format: cell-based, human
Description: as §1

L1210 = test: Cytotoxicity against L1210 cell line; format: cell-based; conditions: Mus musculus, murine lymphocytic leukemia cell line
Description: as §1

[1] = HCT-116, human colon cancer cell line, read-out: Cell Line (IC50, nM) HCT116
[2] = HCT-116/VM46, multi-drug resistant human colon cancer cell line, read-out: Cell Line (IC50, nM) HCT116/ VM46
[3] = MCF7, human breast cancer cell line, read-out: Cell Line (IC50, nM) MCT-7

SMILES | IC50 (HCT116; [1]) [nM] | IC50 (HCT116/VM46; [2]) [nM] | IC50 (MCF-7; [3]) [nM] | IC50 (L1210) [nM] | fold less potent than 1 (HCT116; relative to meayamycin (1), cell line not given) [fold] | IC50 (HCT116; Homo sapiens, HCT-116, read-out: Cell Line (IC50, nM) HCT116) [nM] | IC50 (HCT116/VM46; Homo sapiens, HCT-116/VM46, read-out: Cell Line (IC50, nM) HCT116/ VM46) [nM] | IC50 (MCF-7; Homo sapiens, MCF7, read-out: Cell Line (IC50, nM) MCT-7) [nM]
CC(/C=C/[C@H]1OC(C)(C)C[C@@]2(CO2)[C@@H]1O)=C\C[C@@H]1O[C@H](C)[C@H](NC(=O)/C=C\[C@H](C)O)C[C@@H]1C [Compound 35] | 9.7 | 7.4 | 47 | 7.8 |  |  |  | 
CC(/C=C/[C@H]1OC(C)(C)C[C@@]2(CO2)[C@@H]1O)=C\C[C@@H]1O[C@H](C)[C@H](NC(=O)/C=C\[C@H](C)OC(=O)N2CCN(C)CC2)C[C@@H]1C [Compound 36] | 630 | 840 | 930 | 790 |  |  |  | 
CC(/C=C/[C@H]1OC(C)(C)C[C@@]2(CO2)[C@@H]1O)=C\C[C@@H]1O[C@H](C)[C@H](NC(=O)/C=C\[C@H](C)OC(=O)N2CCSCC2)C[C@@H]1C [Compound 38b] | 0.48 | 0.52 | 0.42 | 0.6 |  |  |  | 
CC(/C=C/[C@H]1OC(C)(C)C[C@@]2(CO2)[C@@H]1O)=C\C[C@@H]1O[C@H](C)[C@H](NC(=O)/C=C\[C@H](C)OC(=O)N2CCCCC2)C[C@@H]1C [Compound 38c] | 0.68 | 0.59 | 2.7 | 0.44 |  |  |  | 
CC(/C=C/[C@H]1OC(C)(C)C[C@@]2(CO2)[C@@H]1O)=C\C[C@@H]1O[C@H](C)[C@H](NC(=O)/C=C\[C@H](C)OC(=O)N(C)C)C[C@@H]1C [Compound 38d] | 0.54 | 0.53 | 0.39 | 0.58 |  |  |  | 
CC(/C=C/[C@H]1OC(C)(C)C[C@@]2(CO2)[C@@H]1O)=C\C[C@@H]1O[C@H](C)[C@H](NC(=O)/C=C\[C@H](C)OC(=O)c2ccccc2)C[C@@H]1C [Compound 38e] | 0.72 | 0.65 | 2.4 | 1.8 |  |  |  | 
CC(/C=C/[C@H]1OC(C)(C)C[C@@]2(CO2)[C@@H]1O)=C\C[C@@H]1O[C@H](C)[C@H](NC(=O)/C=C\[C@H](C)OC(=O)C(C)(C)C)C[C@@H]1C [Compound 38f] | 3.5 | 2.4 |  | 1.2 | 5 |  |  | 
CC(=O)O[C@@H](C)/C=C\C(=O)N[C@@H]1C[C@H](C)[C@H](C/C=C(C)/C=C/[C@H]2OC(C)(C)C[C@@]3(CO3)[C@@H]2O)O[C@@H]1C [Meayamycin (1), Meayamycin, reference compound] | 0.56 | 0.51 | 0.31 | 0.54 |  |  |  | 
CC(/C=C/[C@H]1OC(C)(C)C[C@@]2(CO2)[C@@H]1O)=C\C[C@@H]1O[C@H](C)[C@H](NC(=O)/C=C\[C@H](C)OC(=O)N2CCOCC2)C[C@@H]1C [Meayamycin B (38a), Meayamycin B] |  |  |  |  |  | 0.49 | 0.55 | 0.39
